Source: ChEMBL document CHEMBL3414511, “Synthesis of a novel class of substituted benzothiophene or benzofuran derivatives as BMP-2 up-regulators and evaluation of the BMP-2-up-regulating effects in vitro and the effects on glucocorticoid-induced osteoporosis in rats” (Eur J Med Chem, 2015)
Calls of active or inactive are those of the source. The calls are words filed in the database; no cut-off is given here.

Assays:
Rattus norvegicus [1] = test: Toxicity in glucocorticoid-induced Wistar rat osteoporosis model assessed as white blood cells at 30 mg/kg/day, po administered six times a week for 3 months (reference value: 6.28 +/- 2.78 x 10^9/L); format: organism-based; set-up: route oral; details: in vivo
Rattus norvegicus [2] = test: Toxicity in glucocorticoid-induced Wistar rat osteoporosis model assessed as triglycerides level at 30 mg/kg/day, po administered six times a week for 3 months (reference value: 1.13 +/- 0.69 mmol/L); format: organism-based; set-up: route oral; details: in vivo
Rattus norvegicus [3] = test: Toxicity in glucocorticoid-induced Wistar rat osteoporosis model assessed as effect on red blood cells at 30 mg/kg/day, po administered six times a week for 3 months; format: organism-based; set-up: route oral; details: in vivo
Rattus norvegicus [4] = test: Antiosteoporotic activity in glucocorticoid-induced Wistar rat osteoporosis model assessed as increase in trabecula connectivity at 30 mg/kg/day, po administered six times a week for 3 months by toluidine blue staining-based light microscopic analysis relative to dexamethasone; format: functional, organism-based
[5] = Acute toxicity in po dosed Kunming mouse administered for 3 days measured during compound dosing and following 14 days; format: organism-based; details: in vivo
Mus musculus [6] = test: Acute toxicity in Kunming mouse assessed as shiny fur at 500 mg/kg, po administered for 3 days measured during compound dosing and following 14 days; format: organism-based; set-up: dose 500 mg/kg, route oral; details: in vivo, 336 h
Rattus norvegicus [7] = test: Toxicity in glucocorticoid-induced Wistar rat osteoporosis model assessed as effect on blood urea nitrogen level at 30 mg/kg/day, po administered six times a week for 3 months; format: organism-based; set-up: route oral; details: in vivo
Rattus norvegicus [8] = test: Toxicity in glucocorticoid-induced Wistar rat osteoporosis model assessed as aspartate transaminase level at 30 mg/kg/day, po administered six times a week for 3 months (reference value: 177.55 +/- 116.98 U/L); format: organism-based; set-up: route oral; details: in vivo
Rattus norvegicus [9] = test: Toxicity in glucocorticoid-induced Wistar rat osteoporosis model assessed as effect on total protein level at 30 mg/kg/day, po administered six times a week for 3 months; format: organism-based; set-up: route oral; details: in vivo
Rattus norvegicus [10] = test: Antiosteoporotic activity in glucocorticoid-induced Wistar rat osteoporosis model assessed as increase in trabecula number at 30 mg/kg/day, po administered six times a week for 3 months by toluidine blue staining-based light microscopic analysis relative to dexamethasone; format: functional, organism-based
Rattus norvegicus [11] = test: Toxicity in glucocorticoid-induced Wistar rat osteoporosis model assessed as effect on hemoglobin at 30 mg/kg/day, po administered six times a week for 3 months; format: organism-based; set-up: route oral; details: in vivo
Rattus norvegicus [12] = test: Toxicity in glucocorticoid-induced Wistar rat osteoporosis model assessed as effect on mean corpuscular hemoglobin concentration at 30 mg/kg/day, po administered six times a week for 3 months; format: organism-based; set-up: route oral; details: in vivo
Rattus norvegicus [13] = test: Toxicity in glucocorticoid-induced Wistar rat osteoporosis model assessed as effect on mean corpuscular volume at 30 mg/kg/day, po administered six times a week for 3 months; format: organism-based; set-up: route oral; details: in vivo
Rattus norvegicus [14] = test: Toxicity in glucocorticoid-induced Wistar rat osteoporosis model assessed as lymph level at 30 mg/kg/day, po administered six times a week for 3 months (reference value: 50.35 +/- 12.96%); format: organism-based; set-up: route oral; details: in vivo
Rattus norvegicus [15] = test: Toxicity in glucocorticoid-induced Wistar rat osteoporosis model assessed as effect on total bilirubin level at 30 mg/kg/day, po administered six times a week for 3 months; format: organism-based; set-up: route oral; details: in vivo
[16] = Upregulation of BMP-2 expression in mouse MC3T3-E1 cells at 4 uM after 24 hrs by luciferase reporter gene assay relative to control; format: functional, cell-based
Rattus norvegicus [17] = test: Toxicity in glucocorticoid-induced Wistar rat osteoporosis model assessed as effect on albumin level at 30 mg/kg/day, po administered six times a week for 3 months; format: organism-based; set-up: route oral; details: in vivo
Rattus norvegicus [18] = test: Toxicity in glucocorticoid-induced Wistar rat osteoporosis model assessed as alanine transaminase level at 30 mg/kg/day, po administered six times a week for 3 months (reference value: 43.73 +/- 36.21 U/L); format: organism-based; set-up: route oral; details: in vivo
Rattus norvegicus [19] = test: Antiosteoporotic activity in glucocorticoid-induced Wistar rat osteoporosis model assessed as trabecular bone volume at 30 mg/kg/day, po administered six times a week for 3 months by fluorescence assay (reference value: 33.09 +/- 5.15%); format: functional, Trabecula
Rattus norvegicus [20] = test: Toxicity in glucocorticoid-induced Wistar rat osteoporosis model assessed as effect on red blood cell distribution width at 30 mg/kg/day, po administered six times a week for 3 months; format: organism-based; set-up: route oral; details: in vivo
Rattus norvegicus [21] = test: Toxicity in glucocorticoid-induced Wistar rat osteoporosis model assessed as effect on glucose level at 30 mg/kg/day, po administered six times a week for 3 months; format: organism-based; set-up: route oral; details: in vivo
Rattus norvegicus [22] = test: Antiosteoporotic activity in glucocorticoid-induced Wistar rat osteoporosis model assessed as mineral apposition rate at 30 mg/kg/day, po administered six times a week for 3 months by fluorescence assay (reference value: 1.06 +/- 0.27 micrometer/day); format: functional
Rattus norvegicus [23] = test: Toxicity in glucocorticoid-induced Wistar rat osteoporosis model assessed as neutrophilic granulocytes level at 30 mg/kg/day, po administered six times a week for 3 months (reference value: 31.95 +/- 8.33%); format: organism-based; set-up: route oral; details: in vivo
Rattus norvegicus [24] = test: Toxicity in glucocorticoid-induced Wistar rat osteoporosis model assessed as effect on creatinine level at 30 mg/kg/day, po administered six times a week for 3 months; format: organism-based; set-up: route oral; details: in vivo
Rattus norvegicus [25] = test: Antiosteoporotic activity in glucocorticoid-induced Wistar rat osteoporosis model assessed as trabecula formation surface at 30 mg/kg/day, po administered six times a week for 3 months by fluorescence assay (reference value: 7.82 +/- 2.46%); format: functional
Rattus norvegicus [26] = test: Antiosteoporotic activity in glucocorticoid-induced Wistar rat osteoporosis model assessed as increase in trabecula area at 30 mg/kg/day, po administered six times a week for 3 months by toluidine blue staining-based light microscopic analysis relative to dexamethasone; format: functional, organism-based
Rattus norvegicus [27] = test: Antiosteoporotic activity in glucocorticoid-induced Wistar rat osteoporosis model assessed as increase in trabecula thickness at 30 mg/kg/day, po administered six times a week for 3 months by toluidine blue staining-based light microscopic analysis relative to dexamethasone; format: functional, organism-based
Rattus norvegicus [28] = test: Toxicity in glucocorticoid-induced Wistar rat osteoporosis model assessed as effect on platelets at 30 mg/kg/day, po administered six times a week for 3 months; format: organism-based; set-up: route oral; details: in vivo
Rattus norvegicus [29] = test: Antiosteoporotic activity in glucocorticoid-induced Wistar rat osteoporosis model assessed as trabecula resorption surface at 30 mg/kg/day, po administered six times a week for 3 months by fluorescence assay (reference value: 7.22 +/- 2.04%); format: functional
Mus musculus [30] = test: Acute toxicity in Kunming mouse assessed as behavioral changes at 500 mg/kg, po administered for 3 days measured during compound dosing and following 14 days; format: organism-based; set-up: dose 500 mg/kg, route oral; details: in vivo, 336 h
Rattus norvegicus [31] = test: Toxicity in glucocorticoid-induced Wistar rat osteoporosis model assessed as effect on red blood cell specific volume at 30 mg/kg/day, po administered six times a week for 3 months; format: organism-based; set-up: route oral; details: in vivo

## CCOC(=O)c1ccc2cc(C(=O)/C=C/c3ccccc3)sc2c1
Rattus norvegicus [1]
  Activity: 2.83 ×10⁹ /L
Rattus norvegicus [2]
  Activity: 0.29 mmol/L
Rattus norvegicus [3]
  Activity: Non-toxic
Rattus norvegicus [4]
  Activity: Active
[5]
  LD50 at 336 h: > 500 mg/kg
Mus musculus [6]
  Activity: Non-toxic
Rattus norvegicus [7]
  Activity: Non-toxic
Rattus norvegicus [8]
  Activity: 103.08 U/L
Rattus norvegicus [9]
  Activity: Non-toxic
Rattus norvegicus [10]
  Activity: Active
Rattus norvegicus [11]
  Activity: Non-toxic
Rattus norvegicus [12]
  Activity: Non-toxic
Rattus norvegicus [13]
  Activity: Non-toxic
Rattus norvegicus [14]
  Activity: 43.43%
Rattus norvegicus [15]
  Activity: Non-toxic
[16]
  Activity: 85.9%
Rattus norvegicus [17]
  Activity: Non-toxic
Rattus norvegicus [18]
  Activity: 27 U/L
Rattus norvegicus [19]
  Activity: 25.2%
Rattus norvegicus [20]
  Activity: Non-toxic
Rattus norvegicus [21]
  Activity: Non-toxic
Rattus norvegicus [22]
  Activity: 1.26 micrometer/day
Rattus norvegicus [23]
  Activity: 41.98%
Rattus norvegicus [24]
  Activity: Non-toxic
Rattus norvegicus [25]
  Activity: 6.98%
Rattus norvegicus [26]
  Activity: Active
Rattus norvegicus [27]
  Activity: Active
Rattus norvegicus [28]
  Activity: Non-toxic
Rattus norvegicus [29]
  Activity: 8.58%
Mus musculus [30]
  Activity: Non-toxic
Rattus norvegicus [31]
  Activity: Non-toxic

## COc1ccc2oc(C(O)C[S+](C)[O-])cc2c1 (stereo unspecified)
[16]
  Activity: 16.9%

## COc1ccc2oc(C(=O)CS(C)(=O)=O)cc2c1
[16]
  Activity: 12.9%

## COc1cccc2oc(C(=O)C[S+](C)[O-])cc12 (stereo unspecified)
[16]
  Activity: 19.6%

## CCOC(=O)c1cc2ccc(OC)cc2o1
Rattus norvegicus [1]
  Activity: 2.83 ×10⁹ /L
Rattus norvegicus [2]
  Activity: 0.38 mmol/L
Rattus norvegicus [3]
  Activity: Non-toxic
Rattus norvegicus [4]
  Activity: Active
[5]
  LD50 at 336 h: > 500 mg/kg
Mus musculus [6]
  Activity: Non-toxic
Rattus norvegicus [7]
  Activity: Non-toxic
Rattus norvegicus [8]
  Activity: 110.08 U/L
Rattus norvegicus [9]
  Activity: Non-toxic
Rattus norvegicus [10]
  Activity: Active
Rattus norvegicus [11]
  Activity: Non-toxic
Rattus norvegicus [12]
  Activity: Non-toxic
Rattus norvegicus [13]
  Activity: Non-toxic
Rattus norvegicus [14]
  Activity: 46.18%
Rattus norvegicus [15]
  Activity: Non-toxic
[16]
  Activity: 89.4%
Rattus norvegicus [17]
  Activity: Non-toxic
Rattus norvegicus [18]
  Activity: 27.67 U/L
Rattus norvegicus [19]
  Activity: 30.8%
Rattus norvegicus [20]
  Activity: Non-toxic
Rattus norvegicus [21]
  Activity: Non-toxic
Rattus norvegicus [22]
  Activity: 1.29 micrometer/day
Rattus norvegicus [23]
  Activity: 38.96%
Rattus norvegicus [24]
  Activity: Non-toxic
Rattus norvegicus [25]
  Activity: 7.13%
Rattus norvegicus [26]
  Activity: Active
Rattus norvegicus [27]
  Activity: Active
Rattus norvegicus [28]
  Activity: Non-toxic
Rattus norvegicus [29]
  Activity: 8.23%
Mus musculus [30]
  Activity: Non-toxic
Rattus norvegicus [31]
  Activity: Non-toxic

## CC(=O)c1cc2ccccc2s1
Rattus norvegicus [1]
  Activity: 3.12 ×10⁹ /L
Rattus norvegicus [2]
  Activity: 0.46 mmol/L
Rattus norvegicus [3]
  Activity: Non-toxic
Rattus norvegicus [4]
  Activity: Active
Rattus norvegicus [7]
  Activity: Non-toxic
Rattus norvegicus [8]
  Activity: 129.83 U/L
Rattus norvegicus [9]
  Activity: Non-toxic
Rattus norvegicus [10]
  Activity: Active
Rattus norvegicus [11]
  Activity: Non-toxic
Rattus norvegicus [12]
  Activity: Non-toxic
Rattus norvegicus [13]
  Activity: Non-toxic
Rattus norvegicus [14]
  Activity: 39.85%
Rattus norvegicus [15]
  Activity: Non-toxic
Rattus norvegicus [17]
  Activity: Non-toxic
Rattus norvegicus [18]
  Activity: 35.25 U/L
Rattus norvegicus [19]
  Activity: 31.57%
Rattus norvegicus [20]
  Activity: Non-toxic
Rattus norvegicus [21]
  Activity: Non-toxic
Rattus norvegicus [22]
  Activity: 1.24 micrometer/day
Rattus norvegicus [23]
  Activity: 43.25%
Rattus norvegicus [24]
  Activity: Non-toxic
Rattus norvegicus [25]
  Activity: 7.36%
Rattus norvegicus [26]
  Activity: Active
Rattus norvegicus [27]
  Activity: Active
Rattus norvegicus [28]
  Activity: Non-toxic
Rattus norvegicus [29]
  Activity: 8.36%
Rattus norvegicus [31]
  Activity: Non-toxic

## CCOC(=O)c1cc2ccc(N(CC)CC)cc2o1
[16]
  Activity: 44.6%

## CCOC(=O)c1cc2c(OC)cccc2o1
[16]
  Activity: 60%

## CCOC(=O)c1ccc2cc(C(=O)/C=C/c3ccc(OC)c(OC)c3OC)sc2c1
[16]
  Activity: -13%

## CCN(CC)c1ccc2cc(C(=O)C[S+](C)[O-])oc2c1 (stereo unspecified)
[16]
  Activity: 10%

## CCOC(=O)c1ccc2cc(C(=O)/C=C/c3ccc(OC)cc3)sc2c1
[16]
  Activity: 12.2%

## C[S+]([O-])CC(O)c1cc2ccccc2s1 (stereo unspecified)
[16]
  Activity: -3.6%

## COc1ccc2cc(C(=O)C[S+](C)[O-])oc2c1 (stereo unspecified)
[16]
  Activity: 7.7%

## CCOC(=O)c1ccc2cc(C(=O)/C=C/c3ccc(OC)c(OC)c3)sc2c1
[16]
  Activity: 0.7%

## COC(=O)c1ccc2cc(C(C)O)sc2c1 (stereo unspecified)
[16]
  Activity: 81.4%

## COc1ccc2oc(C(=O)C[S+](C)[O-])cc2c1 (stereo unspecified)
[16]
  Activity: 2.1%

## CCOC(=O)c1cc2cc(OC)ccc2o1
[16]
  Activity: 64.1%

## COC(=O)c1ccc2sc(C(C)O)cc2c1 (stereo unspecified)
[16]
  Activity: 56.9%

## CCOC(=O)c1ccc2cc(C(=O)/C=C/c3ccccc3Cl)sc2c1
[16]
  Activity: 39.1%

## C[S+]([O-])CC(O)c1cc2cc3c(cc2s1)OCO3 (stereo unspecified)
[16]
  Activity: -9.3%
